These results are taken from ChEMBL document CHEMBL4325920, “Discovery of Clinical Candidate BMS-823778 as an Inhibitor of Human 11β-Hydroxysteroid Dehydrogenase Type 1 (11β-HSD-1)” (ACS Med Chem Lett, 2018).

The target in data set [1] is T1, 11-beta-hydroxysteroid dehydrogenase type 2 (Homo sapiens) (UniProt P80365).
T1 sequence (whole entry): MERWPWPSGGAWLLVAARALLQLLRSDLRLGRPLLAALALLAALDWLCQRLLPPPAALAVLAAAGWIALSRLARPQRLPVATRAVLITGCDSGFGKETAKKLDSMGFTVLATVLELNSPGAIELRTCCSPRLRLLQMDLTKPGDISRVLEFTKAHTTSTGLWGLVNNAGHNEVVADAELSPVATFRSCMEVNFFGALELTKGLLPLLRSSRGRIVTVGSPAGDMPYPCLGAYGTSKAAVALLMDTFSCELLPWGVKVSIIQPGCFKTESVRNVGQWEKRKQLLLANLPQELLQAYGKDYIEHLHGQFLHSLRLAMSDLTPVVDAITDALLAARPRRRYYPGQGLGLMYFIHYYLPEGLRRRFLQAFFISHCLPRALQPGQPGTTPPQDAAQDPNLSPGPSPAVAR
The data set can be described thus: Inhibition of recombinant human 11beta-HSD2 expressed in cells up to 30 uM using […] as substrate by LC-MS analysis. Format: cell-based.

The target in data set [2] is T2, 11-beta-hydroxysteroid dehydrogenase type 2 (Mus musculus) (UniProt P51661).
T2 sequence (whole entry): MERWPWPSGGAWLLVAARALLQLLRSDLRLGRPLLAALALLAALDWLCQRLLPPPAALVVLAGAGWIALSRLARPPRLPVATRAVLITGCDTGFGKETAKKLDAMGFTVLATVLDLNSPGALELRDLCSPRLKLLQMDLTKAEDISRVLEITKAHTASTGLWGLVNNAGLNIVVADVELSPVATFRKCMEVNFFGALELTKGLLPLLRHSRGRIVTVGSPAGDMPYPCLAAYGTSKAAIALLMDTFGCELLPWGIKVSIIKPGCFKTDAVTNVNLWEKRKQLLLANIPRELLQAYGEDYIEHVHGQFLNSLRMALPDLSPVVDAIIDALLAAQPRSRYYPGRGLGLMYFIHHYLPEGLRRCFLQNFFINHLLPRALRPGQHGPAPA
The data set can be described thus: Inhibition of mouse 11beta-HSD2 up to 20 uM.

For data set [3], the target named is T3, 11-beta-hydroxysteroid dehydrogenase type 2 (Rattus norvegicus) (UniProt P50233).
T3 sequence (whole entry): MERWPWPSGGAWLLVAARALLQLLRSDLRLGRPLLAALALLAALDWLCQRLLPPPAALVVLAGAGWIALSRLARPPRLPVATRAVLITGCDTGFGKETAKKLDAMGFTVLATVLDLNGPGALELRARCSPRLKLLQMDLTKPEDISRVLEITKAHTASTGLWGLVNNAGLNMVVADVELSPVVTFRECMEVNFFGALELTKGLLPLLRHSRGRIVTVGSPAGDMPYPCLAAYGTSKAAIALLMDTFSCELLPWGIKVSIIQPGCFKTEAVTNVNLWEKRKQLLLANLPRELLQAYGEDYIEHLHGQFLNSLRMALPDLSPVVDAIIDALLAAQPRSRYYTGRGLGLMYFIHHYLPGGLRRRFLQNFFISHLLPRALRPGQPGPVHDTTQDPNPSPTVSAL
As to the kind of experiment: Inhibition of rat 11beta-HSD2 up to 20 uM.

For another data set, the species on record is Macaca fascicularis. The data set can be described thus: Inhibition of cynomolgus monkey 11beta-HSD2 up to 20 uM.
The nature of data set [4]: Selectivity ratio of Ki for recombinant mouse 11beta-HSD1 expressed in HEK293 cell microsomes to Ki for recombinant cynomolgus monkey 11beta-HSD1 expressed in HEK293 cell microsomes.
Data set [5] has as its target 11-beta-hydroxysteroid dehydrogenase 1 (Mus musculus, UniProt P50172). As to the kind of experiment: Inhibition of recombinant mouse 11beta-HSD1 expressed in HEK293 cell microsomes using [3H]cortisone as substrate after 4 hrs by homogeneous immuno-radiometric scintillation proximity assay. (SPA uses beads or plates that emit light when radiolabelled molecules are held near them.)

Data set [6] addresses T4, Nuclear receptor subfamily 1 group I member 2 (Homo sapiens, UniProt O75469).
T4 sequence (O75469 whole entry): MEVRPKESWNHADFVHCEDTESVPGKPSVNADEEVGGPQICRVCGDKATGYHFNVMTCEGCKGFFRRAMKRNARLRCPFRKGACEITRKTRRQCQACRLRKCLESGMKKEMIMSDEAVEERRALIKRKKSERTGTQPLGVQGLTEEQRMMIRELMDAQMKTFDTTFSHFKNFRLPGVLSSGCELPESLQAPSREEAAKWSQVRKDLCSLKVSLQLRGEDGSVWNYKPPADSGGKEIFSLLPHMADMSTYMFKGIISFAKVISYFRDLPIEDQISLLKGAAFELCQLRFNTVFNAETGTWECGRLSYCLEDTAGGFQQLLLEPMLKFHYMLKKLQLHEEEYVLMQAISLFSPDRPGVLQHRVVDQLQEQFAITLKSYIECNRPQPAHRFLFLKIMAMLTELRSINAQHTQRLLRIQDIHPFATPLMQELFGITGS
The data set can be described thus: Activation of PXR (unknown origin). It is filed as ADME.

The nature of data set [7]: Aqueous solubility of the compound at pH 6.5 using crystalline sample. Format: physicochemical.
Data set [8] in a line: Aqueous solubility of the compound at pH 1 using crystalline sample. It is filed as physicochemical.
A short description of data set [9]: Stability of the compound in aqueous buffer at pH 1.1 to pH 7.4 at 40 degC measured after 1 week. The conditions noted are these: pH 1.1, 168 h. Format: physicochemical.
Data set [10] can be described thus: Stability of the compound at 50 degC measured after 12 weeks using crystalline solid sample. It is filed as physicochemical. The conditions noted are these: 2016 h.
The nature of data set [11]: Stability of the compound under high intensity light/UV light measured after 12 weeks using crystalline solid sample. It is filed as physicochemical. As to conditions: 2016 h.
Data set [12] is described as follows: Stability of the compound in solid state. Format: physicochemical.
Data set [13] in a line: Stability of the compound in oxidative solution. It is filed as physicochemical.
A short description of data set [14]: Stability of the compound in hydrolytic solution. It is filed as physicochemical.

The source made the active and inactive calls. No cut-off for these calls is given here.

11-beta-hydroxysteroid dehydrogenase 1, sequence (P50172 whole entry): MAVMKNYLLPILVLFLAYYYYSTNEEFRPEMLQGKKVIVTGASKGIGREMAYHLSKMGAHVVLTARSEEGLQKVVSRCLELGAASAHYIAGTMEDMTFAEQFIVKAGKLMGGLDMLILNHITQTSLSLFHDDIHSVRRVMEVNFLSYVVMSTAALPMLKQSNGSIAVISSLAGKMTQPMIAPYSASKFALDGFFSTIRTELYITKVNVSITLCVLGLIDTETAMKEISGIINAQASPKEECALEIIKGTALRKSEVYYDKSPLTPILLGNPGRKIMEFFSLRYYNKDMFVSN

Regarding `CC(C)(O)c1cccn2c(C3(c4ccc(Cl)cc4)CC3)nnc12`, the inhibition result (in data set [1]; in [2]; in [3]; in the data set listed under Macaca fascicularis) was “inactive” each time. Further, the Ratio Ki in data set [4] turned out to be 55.

Consider `OCC(O)c1cccn2c(C3(c4ccc(Cl)cc4)CC3)nnc12` (centres undefined), for which, in [5], the IC50 is greater than 10 µM. Also, the concentration giving a half-maximal response (EC50) in data set [6] was greater than 50 µM.

On to `CC(C)(O)c1cccn2c(C3(c4ccc(Cl)cc4)CC3)nnc12.Cl` [BMS-823778], for which the solubility (thermodynamic) amounted to 0.5 mg/mL in data set [7] and 220 mg/mL in data set [8]. Also, the Stability result in [9], in [10], in [11], in data set [12], in data set [13] and in data set [14] was “Stable” throughout.

`OCCCc1cccn2c(C3(c4ccc(Cl)cc4)CC3)nnc12`: in data set [5], the IC50 is 5.7 µM. The compound further yielded an EC50 in data set [6] of 25 µM.

As to `CC(C)(CCO)c1cccn2c(C3(c4ccc(Cl)cc4)CC3)nnc12`, the IC50 in [5] was found to be 1.15 µM. This compound also came in with an EC50 in [6] of 1.3 µM.

Broadly, the IC50 is the point on the concentration scale where inhibition reaches its midpoint. Usually EC50 stands for the concentration needed to bring the measured effect to its halfway point. What is called solubility (thermodynamic) is the concentration in solution at equilibrium with solid.
